Experimental data reported in US20090156625A1, “Novel Use of a Nicotinic Receptor Agonist 156” (AstraZeneca AB, priority 2007, published 2009).
Like-named read-outs stand apart in the source and are kept apart here.

How the values were obtained:
Human dose prediction = details: used for human Vss estimate
From the text: Human dose prediction for clinical studies requires an estimate of human PK parameters important for defining the elimination T1/2 and the shape and magnitude of the plasma concentration vs time profile at a particular dose. These estimated parameters include Clearance, Volume of Distribution at Steady State (Vss), absorption rate constant (Ka), bioavailability (F) and dosing frequency. Human dose predictions also require some pharmacological evidence as to how exposure relates to efficacy (McGinnity, Collington, Austin & Riley, Current Drug Metabolism 2007 8 463-479).
Having defined the shape and magnitude of the human plasma concentration vs time curve, the final step was to adjust the dose so that plasma concentrations are attained that are likely to achieve efficacy. […] It was impossible to quantify the compound at these dose levels; consequently plasma concentrations observed at a higher oral dose (about 1 mg/kg) were extrapolated down to that likely at efficacious doses, assuming linear kinetics between the two. Finally, in the absence of a real PK/PD relationship in the mouse, it was assumed that efficacy in humans would be related to plasma AUC. Consequently, the human dose was adjusted to give, in conjunction with the estimated human PK parameters defined above, a human AUC value similar to that observed in mouse at efficacious doses.

[1] = In vivo PK in dog (Vss, Fabs)
From the text: (§4) This Fabs parameter was then adjusted to bioavailability (F) by correction for hepatic extraction. […] The clinical dosing frequency desired was assumed to be once daily.

[2] = Mouse PK in low dose pharmacodynamic study (micro-sampling, LC-MS/MS); format: in vivo; details: mice, oral 0.1, 0.001 and 0.0001 mg/kg b.i.d. for 48 hrs, blood
Method: Mice were weighed and orally dosed according to weight at a dose volume of 10 ml/kg (dosed at 0.1 mg/kg, 0.001 mg/kg and 0.0001 mg/kg b.i.d. for 48 hrs). The PK and low dose pharmacodynamic studies were performed in the same group of animals.
Individual mice were repeatedly sampled at various timepoints over the 48 hr duration of the study by taking small volumes of blood by micro-sampling technique. After heating and mild restrain behind a Perspex stand, the tip of the tail was pricked with a 24 gauge needle and whole blood collected into an EDTA 20 μl glass micro sampling tubes. The 20 μl blood sample was then mixed with 80 μls of distilled water and frozen until analysis.
At study termination the mice were culled using CO2 gas. A blood volume of about 0.4 mL was obtained by cardiac puncture. A volume of whole blood was then mixed with distilled water to lyse the cells (ratio 1:1) and stored for analysis.

in vivo [3] = details: guinea pig
From the text: as §4

MMP13 = test: Histamine induced acute articular inflammation in mouse: MMP13 fluorokine ELISA of cartilage extract; format: in vivo; details: for cartilage extract MMP13 levels: C57B16 mice, oral
Method: (§1) At 1-hour post oral treatment with either vehicle hydroxypropyl methylcellulose (HPMC) or E1, C57B16 mice were anaesthetized under isofluorane by inhalation. An H1 specific receptor antagonist desloratadine (5 mg/kg) was used as a positive control. The left hind knee was shaved, dampened with 70% ethanol and injected intra articularly into the knee joint (6 μl volume) with either saline or histamine (5 μM) using a glass Hamilton syringe and 30-gauge needle. Mice were allowed to recover in their home cage and kept on study for 48 hours post injection and dosed with compound.
(§2) After synovial lavage, the joint was disarticulated and cartilage was removed with a scalpel from the tibial plateau & femoral condyle, taking care to minimise the amounts of bone. Cartilage samples were weighed and snap frozen. The cartilage from individual animals was extracted in 200 μl high salt buffer (HSB) overnight at 4° C. with gentle agitation.
(§3) Samples were centrifuged at 10000 rpm for 10 min and the HSB cartilage extract decanted and stored at −80° C. prior to analysis.
MMP13 fluorokine ELISA (96-Well Plate Format)
HSB cartilage extracts were tested in duplicate at a 1:5 dilution. There were no deviations from the kit instructions (F13M00, R&D Systems) and the plate was read using an excitation wavelength of 320 nm and an emission wavelength of 405 nm.

in vivo [4] = details: rat
From the text: as §4

[5] = rat, in vivo
From the text: as §4

[6] = tested on: S-GAG (aggrecanase activity); test: Histamine induced acute articular inflammation in mouse: S-GAG analysis (DMMB assay) of cartilage extract; format: in vivo; details: C57B16 mice, oral
Method: as §1, §2, §3
HSB cartilage extracts were digested with hyaluronidase (110 units/ml) 37° C. for 3 hrs followed by papain digestion at 60° C. overnight. Digested samples were then centrifuged at 12000 g for 15 minutes. […] The plate was read immediately at 532 nm and 620 nm wavelengths and data calculated as O.D 532 nm/O.D 620 nm minus background. […]

in vivo [7] = details: mouse
Method: In order to gain confidence in predicting circulating levels, mouse PK at 1 mg/kg oral dosing was subsequently carried out.
Blood concentrations are given in nM.

SMILES: CNCc1ccc(-c2cnc3c(c2)C[C@@]2(CN4CCC2CC4)O3)s1 [Example E1, N-methyl-1-{5-[(2R)-3′H-spiro[4-azabicyclo[2.2.2]octane-2,2′-furo[2,3-b]pyridin]-5′-yl]-2-thienyl}methanamine]
- Vss derived by simple allometry across rat and dog (Human dose prediction): 5.7 L/kg
- Fabs (fraction absorbed) ([1]; dog): 70%
- Vd ([1]; dog in vivo): 27 L/kg
- circulating levels [2]: could not be detected in many animals
- Vd (in vivo [3]): 10.2 L/kg
- cartilage extract MMP13 levels (MMP13; 0.0001 mg/kg b.i.d. for 48 hrs (further study, FIG. 6)): decreased levels of MMP13
- cartilage extract MMP13 levels (MMP13; 0.001 mg/kg b.i.d. for 48 hrs (further study, FIG. 6)): decreased levels of MMP13
- cartilage extract MMP13 levels (MMP13; 0.1 mg/kg b.i.d. for 48 hrs (further study, FIG. 6)): decreased levels of MMP13
- cartilage extract MMP13 levels (MMP13; 0.1 mg/kg b.i.d. for 48 hrs, tibial cartilage (first study, FIG. 4)): decreased levels of MMP13
- cartilage extract MMP13 levels (MMP13; 1 mg/kg b.i.d. for 48 hrs, tibial cartilage): decreased levels of MMP13
- cartilage extract MMP13 levels (MMP13; 1 mg/kg once over the 48 hr study period, tibial cartilage): decreased levels of MMP13
- dose at which efficacy against MMP down-regulation and joint swelling was observed (as low as) (MMP13; mouse PD studies): 0.1 µg/kg
- Vd (in vivo [4]): 35.5 L/kg
- Fabs (fraction absorbed) [5]: 83%
- S-GAG cartilage levels ([6]; 1 mg/kg b.i.d. for 48 hrs): significantly reduced
- S-GAG cartilage levels ([6]; 1 mg/kg single dose over 48 hr): significantly reduced
- concentration at 0 h (in vivo [7]; 0.001 mg/kg): 0.0003 nM
- concentration at 0.17 h (in vivo [7]; 0.001 mg/kg): 0.0017 nM
- concentration at 0.33 h (in vivo [7]; 0.001 mg/kg): 0.0058 nM
- concentration at 0.5 h (in vivo [7]; 0.001 mg/kg): 0.0081 nM
- concentration at 0.75 h (in vivo [7]; 0.001 mg/kg): 0.0119 nM
- concentration at 1 h (in vivo [7]; 0.001 mg/kg): 0.0156 nM
- concentration at 2 h (in vivo [7]; 0.001 mg/kg): 0.0266 nM
- concentration at 4 h (in vivo [7]; 0.001 mg/kg): 0.0326 nM
- concentration at 6 h (in vivo [7]; 0.001 mg/kg): 0.0332 nM
- concentration at 8 h (in vivo [7]; 0.001 mg/kg): 0.0349 nM
- concentration at 10 h (in vivo [7]; 0.001 mg/kg): 0.0297 nM
- concentration at 12 h (in vivo [7]; 0.001 mg/kg): 0.0284 nM
- concentration at 24 h (in vivo [7]; 0.001 mg/kg): 0.0172 nM
- concentration at 0 h (in vivo [7]; 0.01 mg/kg): 0 nM
- concentration at 0.17 h (in vivo [7]; 0.01 mg/kg): 0.02 nM
- concentration at 0.33 h (in vivo [7]; 0.01 mg/kg): 0.06 nM
- concentration at 0.5 h (in vivo [7]; 0.01 mg/kg): 0.08 nM
- concentration at 0.75 h (in vivo [7]; 0.01 mg/kg): 0.12 nM
- concentration at 1 h (in vivo [7]; 0.01 mg/kg): 0.16 nM
- concentration at 2 h (in vivo [7]; 0.01 mg/kg): 0.27 nM
- concentration at 4 h (in vivo [7]; 0.01 mg/kg): 0.33 nM
- concentration at 6 h (in vivo [7]; 0.01 mg/kg): 0.33 nM
- concentration at 8 h (in vivo [7]; 0.01 mg/kg): 0.35 nM
- concentration at 10 h (in vivo [7]; 0.01 mg/kg): 0.3 nM
- concentration at 12 h (in vivo [7]; 0.01 mg/kg): 0.28 nM
- concentration at 24 h (in vivo [7]; 0.01 mg/kg): 0.17 nM
- concentration at 0 h (in vivo [7]; 0.03 mg/kg): 0.01 nM
- concentration at 0.17 h (in vivo [7]; 0.03 mg/kg): 0.05 nM
- concentration at 0.33 h (in vivo [7]; 0.03 mg/kg): 0.17 nM
- concentration at 0.5 h (in vivo [7]; 0.03 mg/kg): 0.24 nM
- concentration at 0.75 h (in vivo [7]; 0.03 mg/kg): 0.36 nM
- concentration at 1 h (in vivo [7]; 0.03 mg/kg): 0.47 nM
- concentration at 2 h (in vivo [7]; 0.03 mg/kg): 0.8 nM
- concentration at 4 h (in vivo [7]; 0.03 mg/kg): 0.98 nM
- concentration at 6 h (in vivo [7]; 0.03 mg/kg): 1 nM
- concentration at 8 h (in vivo [7]; 0.03 mg/kg): 1.05 nM
- concentration at 10 h (in vivo [7]; 0.03 mg/kg): 0.89 nM
- concentration at 12 h (in vivo [7]; 0.03 mg/kg): 0.85 nM
- concentration at 24 h (in vivo [7]; 0.03 mg/kg): 0.52 nM
- concentration at 0 h (in vivo [7]; 0.1 mg/kg): 0.03 nM
- concentration at 0.17 h (in vivo [7]; 0.1 mg/kg): 0.17 nM
- concentration at 0.33 h (in vivo [7]; 0.1 mg/kg): 0.58 nM
- concentration at 0.5 h (in vivo [7]; 0.1 mg/kg): 0.81 nM
- concentration at 0.75 h (in vivo [7]; 0.1 mg/kg): 1.19 nM
- concentration at 1 h (in vivo [7]; 0.1 mg/kg): 1.56 nM
- concentration at 2 h (in vivo [7]; 0.1 mg/kg): 2.66 nM
- concentration at 4 h (in vivo [7]; 0.1 mg/kg): 3.26 nM
- concentration at 6 h (in vivo [7]; 0.1 mg/kg): 3.32 nM
- concentration at 8 h (in vivo [7]; 0.1 mg/kg): 3.49 nM
- concentration at 10 h (in vivo [7]; 0.1 mg/kg): 2.97 nM
- concentration at 12 h (in vivo [7]; 0.1 mg/kg): 2.84 nM
- concentration at 24 h (in vivo [7]; 0.1 mg/kg): 1.72 nM
- AUC (in vivo [7]; po, 0.001 mg/kg): 0.29 nM·h
- Cmax (in vivo [7]; po, 0.001 mg/kg): 0.035 nM
- AUC (in vivo [7]; po, 0.01 mg/kg): 2.94 nM·h
- Cmax (in vivo [7]; po, 0.01 mg/kg): 0.349 nM
- AUC (in vivo [7]; po, 0.03 mg/kg): 8.81 nM·h
- Cmax (in vivo [7]; po, 0.03 mg/kg): 1.05 nM
- AUC (in vivo [7]; po, 0.1 mg/kg): 29.4 nM·h
- Cmax (in vivo [7]; po, 0.1 mg/kg): 3.49 nM
- AUC (in vivo [7]; po, 1 mg/kg): 294 nM·h
- Cmax (in vivo [7]; po, 1 mg/kg): 35 nM
- concentration at 0 h (in vivo [7]; po, 1 mg/kg): 0.31 nM
- concentration at 0.17 h (in vivo [7]; po, 1 mg/kg): 1.65 nM
- concentration at 0.33 h (in vivo [7]; po, 1 mg/kg): 5.75 nM
- concentration at 0.5 h (in vivo [7]; po, 1 mg/kg): 8.08 nM
- concentration at 0.75 h (in vivo [7]; po, 1 mg/kg): 11.9 nM
- concentration at 1 h (in vivo [7]; po, 1 mg/kg): 15.6 nM
- concentration at 2 h (in vivo [7]; po, 1 mg/kg): 26.6 nM
- concentration at 4 h (in vivo [7]; po, 1 mg/kg): 32.6 nM
- concentration at 6 h (in vivo [7]; po, 1 mg/kg): 33.2 nM
- concentration at 8 h (in vivo [7]; po, 1 mg/kg): 34.9 nM
- concentration at 10 h (in vivo [7]; po, 1 mg/kg): 29.7 nM
- concentration at 12 h (in vivo [7]; po, 1 mg/kg): 28.4 nM
- concentration at 24 h (in vivo [7]; po, 1 mg/kg): 17.2 nM
